Measured values from US12146004B2, “Polymyxin compounds and uses thereof” (priority 2014, dated 2024).
Values after ≈ are worked out from the molar mass of the structure shown. Like-named read-outs stand apart in the source and are kept apart here.

Tests used:
Type in all cases: cell-based
[1] = test system: Acinetobacter baumannii
Procedure: (§1) To evaluate the potency and spectrum of the compounds, susceptibility testing was performed against up to nine strains of each of the Gram negative pathogens, Escherichia coli, Pseudomonas aeruginosa, Klebsiella pneumoniae and Acinetobacter baumannii.
(§2) The values in Table 2 are MIC (μg/mL) against strains of E. coli, K. pneumoniae, P. aeruginosa and A. baumanii, including strains which show elevated MICs to Polymyxin.
(§3) The values in Table 2A are MIC (μg/mL).
(§4) The in vitro activity of compounds 26 and C7 (FADDI-02) against resistant bacterial strains was compared. The resistant strains included including Escherichia coli, Pseudomonas aeruginosa, Klebsiella pneumoniae and Acinetobacter baumannii strains. The data is provided in Table 2C, where the strains are identified. The values in Table 2 are MIC (μg/mL).

[2] = test system: Klebsiella pneumoniae
Procedure: as §1, §2, §3, §4

[3] = test system: Escherichia coli
Procedure: as §1, §2, §3, §4

[4] = test system: Pseudomonas aeruginosa
Procedure: as §1, §2, §3, §4

Structure (SMILES)	MIC A. baumanii 053 ([1]; strain 053)	MIC A. baumanii 056 ([1]; strain 056)	MIC A. baumanii ATCC BAA-747 ([1]; strain ATCC BAA-747)	MIC A. baumanii NCTC 13424 ([1]; strain NCTC 13424)	MIC K. pneumoniae 063 ([2]; strain 063)	MIC K. pneumoniae 065 ([2]; strain 065)	MIC K. pneumoniae ATCC 13882 ([2]; strain ATCC 13882)	MIC E. coli 058 ([3]; strain 058)	MIC E. coli 061 ([3]; strain 061)	MIC E. coli ATCC 25922 ([3]; strain ATCC 25922)	MIC P. aeruginosa 068 ([4]; strain 068)	MIC P. aeruginosa 070 ([4]; strain 070)	MIC P. aeruginosa ATCC 27853 ([4]; strain ATCC 27853)	MIC P. aeruginosa CCUG 59347 ([4]; strain CCUG 59347)	MIC A. baumanii ATCC BAA-747 [1]	MIC A. baumanii NCTC 13424 [1]	MIC K. pneumoniae ATCC 13882 [2]	MIC E. coli 058 [3]	MIC E. coli ATCC 25922 [3]	MIC P. aeruginosa CCUG 59347 [4]	further results
CC(C)C[C@@H]1NC(=O)[C@@H](CC2CCCCC2)NC(=O)[C@H](CCN)NC(=O)[C@@H](NC(=O)[C@H](CN)NC(=O)[C@@H](NC(=O)CC(CN)Cc2ccccc2)[C@@H](C)O)CCNC(=O)[C@H]([C@@H](C)O)NC(=O)[C@H](CCN)NC(=O)[C@H](CCN)NC1=O (single isomer, unassigned; isomer 1) [Example 58, 4-amino-3-benzylbutanoyl L-Thr-L-Dap-polymyxin [D-cyclohexylalanine]-6 heptapeptide. Isomer 1]	64 µg/mL (≈ 56.6 µM)	64 µg/mL (≈ 56.6 µM)	0.03 µg/mL (≈ 0.0265 µM)	0.125 µg/mL (≈ 0.111 µM)	64 µg/mL (≈ 56.6 µM)	4 µg/mL (≈ 3.54 µM)	0.25 µg/mL (≈ 0.221 µM)	4 µg/mL (≈ 3.54 µM)	16 µg/mL (≈ 14.2 µM)	0.25 µg/mL (≈ 0.221 µM)	2 µg/mL (≈ 1.77 µM)	8 µg/mL (≈ 7.08 µM)	0.25 µg/mL (≈ 0.221 µM)	0.25 µg/mL (≈ 0.221 µM)	–	–	–	–	–	–	MIC E. coli NCTC 9001 ([3]; strain NCTC 9001): 0.125 µg/mL (≈ 0.111 µM)
CC(C)C[C@@H]1NC(=O)[C@@H](CC2CCCCC2)NC(=O)[C@H](CCN)NC(=O)[C@@H](NC(=O)[C@H](CN)NC(=O)[C@@H](NC(=O)CCC(N)c2ccccc2)[C@@H](C)O)CCNC(=O)[C@H]([C@@H](C)O)NC(=O)[C@H](CCN)NC(=O)[C@H](CCN)NC1=O (single isomer, unassigned; isomer 1) [Example 60, 4-amino-4-phenylbutanoyl L-Thr-L-Dap-polymyxin [D-cyclohexylalanine]-6 heptapeptide. Isomer 1]	–	–	–	–	–	–	–	–	–	–	–	–	–	–	0.5 µg/mL (≈ 0.448 µM)	1 µg/mL (≈ 0.896 µM)	0.5 µg/mL (≈ 0.448 µM)	16 µg/mL (≈ 14.3 µM)	0.5 µg/mL (≈ 0.448 µM)	1 µg/mL (≈ 0.896 µM)	–
CC(C)C[C@@H]1NC(=O)[C@@H](CC2CCCCC2)NC(=O)[C@H](CCN)NC(=O)[C@@H](NC(=O)[C@H](CCN)NC(=O)[C@@H](NC(=O)CC(CN)Cc2ccccc2)[C@@H](C)O)CCNC(=O)[C@H]([C@@H](C)O)NC(=O)[C@H](CCN)NC(=O)[C@H](CCN)NC1=O (single isomer, unassigned; isomer 1) [Example 66, 4-amino-3-benzylbutanoyl polymyxin [D-cyclohexylalanine]-6 nonapeptide isomer 1]	>64 µg/mL	64 µg/mL (≈ 55.9 µM)	0.125 µg/mL (≈ 0.109 µM)	0.06 µg/mL (≈ 0.0524 µM)	64 µg/mL (≈ 55.9 µM)	4 µg/mL (≈ 3.5 µM)	0.125 µg/mL (≈ 0.109 µM)	8 µg/mL (≈ 6.99 µM)	32 µg/mL (≈ 28 µM)	0.125 µg/mL (≈ 0.109 µM)	8 µg/mL (≈ 6.99 µM)	32 µg/mL (≈ 28 µM)	0.25 µg/mL (≈ 0.218 µM)	0.5 µg/mL (≈ 0.437 µM)	–	–	–	–	–	–	–
CC(C)C[C@@H]1NC(=O)[C@@H](CC2CCCCC2)NC(=O)[C@H](CCN)NC(=O)[C@@H](NC(=O)[C@H](CN)NC(=O)[C@@H](NC(=O)C(CCN)OCc2cccc(Cl)c2)[C@@H](C)O)CCNC(=O)[C@H]([C@@H](C)O)NC(=O)[C@H](CCN)NC(=O)[C@H](CCN)NC1=O (single isomer, unassigned; isomer 1) [Example 82, 4-amino-2-((3-chlorobenzyl)oxy) butanoyl L-Thr-L-Dap-polymyxin [D-cyclohexylalanine-6]heptapeptide. Isomer 1]	–	–	–	–	–	–	–	–	–	–	–	–	–	–	0.125 µg/mL (≈ 0.106 µM)	0.03 µg/mL (≈ 0.0254 µM)	0.125 µg/mL (≈ 0.106 µM)	2 µg/mL (≈ 1.69 µM)	0.06 µg/mL (≈ 0.0508 µM)	0.125 µg/mL (≈ 0.106 µM)	MIC A. baumanii 053 [1]: 64 µg/mL (≈ 54.2 µM); MIC A. baumanii 056 [1]: 16 µg/mL (≈ 13.5 µM); MIC K. pneumoniae 063 [2]: 32 µg/mL (≈ 27.1 µM); MIC K. pneumoniae 065 [2]: 2 µg/mL (≈ 1.69 µM); MIC E. coli 061 [3]: 8 µg/mL (≈ 6.77 µM); MIC E. coli NCTC 9001 [3]: 0.015 µg/mL (≈ 0.0127 µM); MIC P. aeruginosa 068 [4]: 4 µg/mL (≈ 3.39 µM); MIC P. aeruginosa 070 [4]: 8 µg/mL (≈ 6.77 µM); MIC P. aeruginosa ATCC 27853 [4]: 0.125 µg/mL (≈ 0.106 µM)
